Test results: ChEMBL document CHEMBL4400533, “Histone deacetylase 3 inhibitors in learning and memory processes with special emphasis on benzamides” (Eur J Med Chem, 2019); call rule not given here

Columns and labels:
[1] = molecular target: T1, Histone deacetylase 1 (Homo sapiens, UniProt Q13547); assay: Inhibition of HDAC1 (unknown origin) using (FAM)-labeled acetylated peptide as substrate measured after 17 hrs by fluorescence assay
[2] = molecular target: T2, Histone deacetylase 2 (Homo sapiens, UniProt Q92769); assay: Inhibition of HDAC2 (unknown origin) using (FAM)-labeled acetylated peptide as substrate measured after 17 hrs by fluorescence assay
[3] = molecular target: Histone deacetylase 3 (Homo sapiens, UniProt O15379); assay: Inhibition of HDAC3 (unknown origin) using (FAM)-labeled acetylated peptide as substrate measured after 17 hrs by fluorescence assay
[4] = molecular target: T3, Protein deacetylase HDAC6 (Homo sapiens, UniProt Q9UBN7); assay: Inhibition of HDAC6 (unknown origin) using (FAM)-labeled acetylated peptide as substrate measured after 17 hrs by fluorescence assay
T3 sequence (Q9UBN7 whole entry): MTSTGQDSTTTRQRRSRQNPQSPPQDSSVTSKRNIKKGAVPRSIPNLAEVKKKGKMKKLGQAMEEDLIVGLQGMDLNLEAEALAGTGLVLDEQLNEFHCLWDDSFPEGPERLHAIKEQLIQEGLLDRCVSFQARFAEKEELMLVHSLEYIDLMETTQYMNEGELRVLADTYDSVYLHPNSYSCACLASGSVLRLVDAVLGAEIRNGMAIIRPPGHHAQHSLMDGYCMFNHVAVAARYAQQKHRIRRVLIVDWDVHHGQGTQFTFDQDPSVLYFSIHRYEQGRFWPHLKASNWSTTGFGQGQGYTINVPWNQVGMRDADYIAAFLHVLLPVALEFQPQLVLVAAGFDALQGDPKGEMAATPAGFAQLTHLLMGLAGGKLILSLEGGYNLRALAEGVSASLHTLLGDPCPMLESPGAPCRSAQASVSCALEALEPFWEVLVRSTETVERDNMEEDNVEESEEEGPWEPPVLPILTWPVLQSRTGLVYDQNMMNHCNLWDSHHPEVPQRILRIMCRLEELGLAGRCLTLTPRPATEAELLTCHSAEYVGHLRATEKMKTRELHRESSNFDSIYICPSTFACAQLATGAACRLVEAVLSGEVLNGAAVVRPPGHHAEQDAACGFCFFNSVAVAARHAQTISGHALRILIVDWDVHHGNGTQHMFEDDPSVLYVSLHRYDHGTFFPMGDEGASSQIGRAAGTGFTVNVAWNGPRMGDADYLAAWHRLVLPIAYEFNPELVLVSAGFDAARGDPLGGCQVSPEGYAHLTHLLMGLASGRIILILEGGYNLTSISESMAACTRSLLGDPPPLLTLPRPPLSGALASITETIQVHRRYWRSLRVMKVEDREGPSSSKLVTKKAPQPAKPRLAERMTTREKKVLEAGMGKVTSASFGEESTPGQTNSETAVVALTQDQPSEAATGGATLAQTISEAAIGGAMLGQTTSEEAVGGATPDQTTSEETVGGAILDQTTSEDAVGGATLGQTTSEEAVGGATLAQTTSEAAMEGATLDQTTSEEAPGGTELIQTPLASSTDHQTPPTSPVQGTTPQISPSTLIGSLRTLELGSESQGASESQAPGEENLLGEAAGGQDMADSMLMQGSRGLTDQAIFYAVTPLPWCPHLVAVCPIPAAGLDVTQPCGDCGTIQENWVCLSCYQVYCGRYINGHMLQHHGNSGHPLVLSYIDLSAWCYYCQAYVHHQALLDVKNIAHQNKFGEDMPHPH

[5] = molecular target: T4, Histone deacetylase 8 (Homo sapiens, UniProt Q9BY41); assay: Inhibition of HDAC8 (unknown origin) using (FAM)-labeled acetylated peptide as substrate measured after 17 hrs by fluorescence assay
T4 sequence (Q9BY41 whole entry): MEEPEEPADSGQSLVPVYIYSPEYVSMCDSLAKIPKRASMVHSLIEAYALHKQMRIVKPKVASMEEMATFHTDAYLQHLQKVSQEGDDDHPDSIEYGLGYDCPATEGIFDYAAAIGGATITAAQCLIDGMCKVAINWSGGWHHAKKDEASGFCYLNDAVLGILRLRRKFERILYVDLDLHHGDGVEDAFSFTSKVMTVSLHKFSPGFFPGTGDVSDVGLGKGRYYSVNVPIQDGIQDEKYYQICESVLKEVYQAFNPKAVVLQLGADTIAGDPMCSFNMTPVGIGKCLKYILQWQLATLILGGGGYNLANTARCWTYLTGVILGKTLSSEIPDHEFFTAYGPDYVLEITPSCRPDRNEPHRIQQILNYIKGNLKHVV

[6] = molecular target: T5, Polyamine deacetylase HDAC10 (Homo sapiens, UniProt Q969S8); assay: Inhibition of HDAC10 (unknown origin) using (FAM)-labeled acetylated peptide as substrate measured after 17 hrs by fluorescence assay
T5 sequence (Q969S8 whole entry): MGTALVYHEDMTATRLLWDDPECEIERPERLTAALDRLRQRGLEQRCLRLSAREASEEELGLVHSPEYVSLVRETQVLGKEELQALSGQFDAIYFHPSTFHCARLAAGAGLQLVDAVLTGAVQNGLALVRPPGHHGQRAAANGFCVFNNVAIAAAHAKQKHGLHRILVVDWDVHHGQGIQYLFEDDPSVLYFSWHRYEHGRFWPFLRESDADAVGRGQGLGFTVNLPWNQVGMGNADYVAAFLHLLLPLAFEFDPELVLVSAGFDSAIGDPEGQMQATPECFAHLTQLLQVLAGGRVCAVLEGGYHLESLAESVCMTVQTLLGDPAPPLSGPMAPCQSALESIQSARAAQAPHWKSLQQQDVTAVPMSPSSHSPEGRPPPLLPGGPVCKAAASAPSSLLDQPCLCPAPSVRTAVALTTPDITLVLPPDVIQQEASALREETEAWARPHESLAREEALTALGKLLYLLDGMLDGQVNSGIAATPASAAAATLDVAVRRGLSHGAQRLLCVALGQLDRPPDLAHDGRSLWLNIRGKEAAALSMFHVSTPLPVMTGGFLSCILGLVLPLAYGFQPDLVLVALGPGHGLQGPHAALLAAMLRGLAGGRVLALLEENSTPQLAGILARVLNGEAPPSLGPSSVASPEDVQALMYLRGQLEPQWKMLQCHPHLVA

[7] = molecular target: T6, Histone deacetylase 4 (Homo sapiens, UniProt P56524); assay: Inhibition of HDAC4 (unknown origin)
[8] = molecular target: Histone deacetylase 5 (Homo sapiens, UniProt Q9UQL6); assay: Inhibition of HDAC5 (unknown origin)
[9] = molecular target: T7, Histone deacetylase 7 (Homo sapiens, UniProt Q8WUI4); assay: Inhibition of HDAC7 (unknown origin)
T7 sequence (Q8WUI4 whole entry): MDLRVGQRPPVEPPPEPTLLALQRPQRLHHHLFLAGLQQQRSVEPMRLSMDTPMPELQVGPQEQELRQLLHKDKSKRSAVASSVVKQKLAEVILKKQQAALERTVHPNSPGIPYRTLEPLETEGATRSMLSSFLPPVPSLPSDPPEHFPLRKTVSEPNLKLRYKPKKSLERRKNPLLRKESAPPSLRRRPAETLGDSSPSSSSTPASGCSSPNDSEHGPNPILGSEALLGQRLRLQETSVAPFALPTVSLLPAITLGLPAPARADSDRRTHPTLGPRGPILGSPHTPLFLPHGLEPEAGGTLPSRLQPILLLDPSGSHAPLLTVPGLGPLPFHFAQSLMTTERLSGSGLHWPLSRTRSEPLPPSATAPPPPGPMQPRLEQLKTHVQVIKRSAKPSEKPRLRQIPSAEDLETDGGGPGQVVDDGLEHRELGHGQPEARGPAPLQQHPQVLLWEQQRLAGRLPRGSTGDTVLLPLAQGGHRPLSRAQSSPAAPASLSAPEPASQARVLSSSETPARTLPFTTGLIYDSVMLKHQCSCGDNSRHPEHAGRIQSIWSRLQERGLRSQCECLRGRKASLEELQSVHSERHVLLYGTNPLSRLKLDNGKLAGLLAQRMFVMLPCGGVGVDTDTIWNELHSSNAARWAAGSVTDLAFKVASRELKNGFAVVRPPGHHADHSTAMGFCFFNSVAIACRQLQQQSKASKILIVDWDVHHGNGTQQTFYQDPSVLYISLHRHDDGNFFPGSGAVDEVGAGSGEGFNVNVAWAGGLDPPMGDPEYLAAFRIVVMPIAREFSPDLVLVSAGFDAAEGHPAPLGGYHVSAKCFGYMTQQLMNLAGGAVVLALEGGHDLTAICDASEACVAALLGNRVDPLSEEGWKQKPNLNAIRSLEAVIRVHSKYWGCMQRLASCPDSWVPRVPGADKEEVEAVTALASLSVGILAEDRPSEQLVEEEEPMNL

[10] = molecular target: Histone deacetylase 3/NCoR1 (Homo sapiens, UniProt O15379); assay: Inhibition of human recombinant HDAC3/GST-tagged NCOR1 DAD (397 to 503 residues) expressed in baculovirus expression system by fluorescence assay
[11] = molecular target: T3, Protein deacetylase HDAC6; assay: Inhibition of recombinant human full length N-terminal GST-tagged HDAC6 expressed in Sf9 insect cells using (S)-6-acetamido-2-(2-((S)-2-acetamido-4-methylpentanamido)acetamido)-N-(4-methyl-2-oxo-2H-chromen-7-yl)hexanamide as substrate by fluorescence assay
[12] = Dissociation constant, pKa of the compound; assay type: physicochemical
[13] = molecular target: T1, Histone deacetylase 1; assay: Inhibition of recombinant human HDAC1 using fluorescently-labeled acetylated histone peptide as substrate by microfluidic mobility shift assay
[14] = molecular target: T2, Histone deacetylase 2; assay: Inhibition of recombinant human HDAC2 using fluorescently-labeled acetylated histone peptide as substrate by microfluidic mobility shift assay
[15] = molecular target: T6, Histone deacetylase 4; assay: Inhibition of recombinant human HDAC4 using fluorescently-labeled acetylated histone peptide as substrate by microfluidic mobility shift assay
[16] = molecular target: T3, Protein deacetylase HDAC6; assay: Inhibition of recombinant human HDAC6 using fluorescently-labeled acetylated histone peptide as substrate by microfluidic mobility shift assay
[17] = molecular target: T7, Histone deacetylase 7; assay: Inhibition of recombinant human HDAC7 using fluorescently-labeled acetylated histone peptide as substrate by microfluidic mobility shift assay
[18] = molecular target: T4, Histone deacetylase 8; assay: Inhibition of recombinant human HDAC8 using fluorescently-labeled acetylated histone peptide as substrate by microfluidic mobility shift assay

Histone deacetylase 3, sequence (O15379 whole entry): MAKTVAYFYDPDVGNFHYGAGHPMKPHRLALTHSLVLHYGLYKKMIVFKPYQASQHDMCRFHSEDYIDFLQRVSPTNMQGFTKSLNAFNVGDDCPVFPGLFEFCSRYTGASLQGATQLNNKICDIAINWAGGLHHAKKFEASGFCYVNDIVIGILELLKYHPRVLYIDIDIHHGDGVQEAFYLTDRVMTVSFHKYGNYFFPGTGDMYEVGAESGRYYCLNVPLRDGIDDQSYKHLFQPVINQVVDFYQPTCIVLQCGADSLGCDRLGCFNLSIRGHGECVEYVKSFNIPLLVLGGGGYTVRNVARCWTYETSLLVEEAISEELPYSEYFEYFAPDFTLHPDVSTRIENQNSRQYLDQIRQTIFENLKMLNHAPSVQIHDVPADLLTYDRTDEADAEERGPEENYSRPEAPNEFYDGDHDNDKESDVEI
T1 sequence (Q13547 whole entry): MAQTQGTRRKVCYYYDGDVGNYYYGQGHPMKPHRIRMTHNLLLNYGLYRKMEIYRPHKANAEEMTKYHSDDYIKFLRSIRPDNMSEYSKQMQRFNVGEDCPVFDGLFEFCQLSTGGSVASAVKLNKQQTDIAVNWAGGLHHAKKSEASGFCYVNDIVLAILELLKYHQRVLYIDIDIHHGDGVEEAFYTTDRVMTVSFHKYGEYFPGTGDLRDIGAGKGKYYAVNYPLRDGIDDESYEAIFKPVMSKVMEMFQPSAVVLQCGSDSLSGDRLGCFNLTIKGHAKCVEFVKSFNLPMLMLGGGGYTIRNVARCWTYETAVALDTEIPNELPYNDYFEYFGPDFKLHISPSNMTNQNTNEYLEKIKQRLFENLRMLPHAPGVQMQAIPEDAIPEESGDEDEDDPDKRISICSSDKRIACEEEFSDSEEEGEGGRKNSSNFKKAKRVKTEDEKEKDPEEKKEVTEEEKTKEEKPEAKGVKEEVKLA
T2 sequence (Q92769 whole entry): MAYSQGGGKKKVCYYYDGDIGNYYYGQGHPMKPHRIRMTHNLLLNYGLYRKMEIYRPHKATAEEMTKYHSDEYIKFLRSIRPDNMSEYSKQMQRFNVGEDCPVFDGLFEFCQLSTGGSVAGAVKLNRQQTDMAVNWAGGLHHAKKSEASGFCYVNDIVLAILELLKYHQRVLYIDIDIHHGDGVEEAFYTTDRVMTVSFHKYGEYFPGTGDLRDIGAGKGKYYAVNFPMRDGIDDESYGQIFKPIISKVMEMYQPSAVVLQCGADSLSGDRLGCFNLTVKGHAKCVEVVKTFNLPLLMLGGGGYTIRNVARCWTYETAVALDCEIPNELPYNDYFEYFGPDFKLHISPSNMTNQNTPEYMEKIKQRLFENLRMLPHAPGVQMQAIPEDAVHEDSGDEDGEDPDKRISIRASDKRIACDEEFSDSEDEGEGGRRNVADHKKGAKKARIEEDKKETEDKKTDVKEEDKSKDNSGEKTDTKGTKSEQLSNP
T6 sequence (P56524 whole entry): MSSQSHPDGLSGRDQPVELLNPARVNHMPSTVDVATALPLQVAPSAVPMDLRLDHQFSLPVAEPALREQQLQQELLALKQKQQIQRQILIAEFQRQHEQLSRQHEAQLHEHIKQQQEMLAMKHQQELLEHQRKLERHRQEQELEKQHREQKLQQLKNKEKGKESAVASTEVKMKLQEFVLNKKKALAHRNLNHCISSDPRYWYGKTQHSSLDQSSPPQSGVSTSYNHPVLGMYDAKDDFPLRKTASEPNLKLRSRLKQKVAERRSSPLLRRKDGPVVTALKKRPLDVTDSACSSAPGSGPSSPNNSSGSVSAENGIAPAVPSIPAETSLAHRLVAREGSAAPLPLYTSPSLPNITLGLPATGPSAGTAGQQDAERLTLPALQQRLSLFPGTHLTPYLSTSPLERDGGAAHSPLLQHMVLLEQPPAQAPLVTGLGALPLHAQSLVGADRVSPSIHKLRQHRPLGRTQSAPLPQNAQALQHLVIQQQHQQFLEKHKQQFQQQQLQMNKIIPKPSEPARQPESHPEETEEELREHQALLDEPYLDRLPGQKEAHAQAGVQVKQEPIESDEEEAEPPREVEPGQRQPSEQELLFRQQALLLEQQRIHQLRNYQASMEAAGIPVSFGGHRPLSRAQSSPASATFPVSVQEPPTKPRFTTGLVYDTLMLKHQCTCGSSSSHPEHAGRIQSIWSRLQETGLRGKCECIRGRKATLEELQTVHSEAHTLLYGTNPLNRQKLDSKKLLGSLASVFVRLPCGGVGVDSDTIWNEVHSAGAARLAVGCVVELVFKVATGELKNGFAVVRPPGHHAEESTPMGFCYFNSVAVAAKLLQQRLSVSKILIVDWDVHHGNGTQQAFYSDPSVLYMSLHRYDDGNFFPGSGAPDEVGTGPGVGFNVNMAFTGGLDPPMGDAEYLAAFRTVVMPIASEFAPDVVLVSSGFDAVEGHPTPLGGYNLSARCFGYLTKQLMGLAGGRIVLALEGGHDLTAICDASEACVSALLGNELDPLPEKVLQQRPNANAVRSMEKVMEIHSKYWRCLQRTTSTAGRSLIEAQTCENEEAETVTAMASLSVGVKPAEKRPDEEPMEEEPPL
Histone deacetylase 5, sequence (Q9UQL6 whole entry): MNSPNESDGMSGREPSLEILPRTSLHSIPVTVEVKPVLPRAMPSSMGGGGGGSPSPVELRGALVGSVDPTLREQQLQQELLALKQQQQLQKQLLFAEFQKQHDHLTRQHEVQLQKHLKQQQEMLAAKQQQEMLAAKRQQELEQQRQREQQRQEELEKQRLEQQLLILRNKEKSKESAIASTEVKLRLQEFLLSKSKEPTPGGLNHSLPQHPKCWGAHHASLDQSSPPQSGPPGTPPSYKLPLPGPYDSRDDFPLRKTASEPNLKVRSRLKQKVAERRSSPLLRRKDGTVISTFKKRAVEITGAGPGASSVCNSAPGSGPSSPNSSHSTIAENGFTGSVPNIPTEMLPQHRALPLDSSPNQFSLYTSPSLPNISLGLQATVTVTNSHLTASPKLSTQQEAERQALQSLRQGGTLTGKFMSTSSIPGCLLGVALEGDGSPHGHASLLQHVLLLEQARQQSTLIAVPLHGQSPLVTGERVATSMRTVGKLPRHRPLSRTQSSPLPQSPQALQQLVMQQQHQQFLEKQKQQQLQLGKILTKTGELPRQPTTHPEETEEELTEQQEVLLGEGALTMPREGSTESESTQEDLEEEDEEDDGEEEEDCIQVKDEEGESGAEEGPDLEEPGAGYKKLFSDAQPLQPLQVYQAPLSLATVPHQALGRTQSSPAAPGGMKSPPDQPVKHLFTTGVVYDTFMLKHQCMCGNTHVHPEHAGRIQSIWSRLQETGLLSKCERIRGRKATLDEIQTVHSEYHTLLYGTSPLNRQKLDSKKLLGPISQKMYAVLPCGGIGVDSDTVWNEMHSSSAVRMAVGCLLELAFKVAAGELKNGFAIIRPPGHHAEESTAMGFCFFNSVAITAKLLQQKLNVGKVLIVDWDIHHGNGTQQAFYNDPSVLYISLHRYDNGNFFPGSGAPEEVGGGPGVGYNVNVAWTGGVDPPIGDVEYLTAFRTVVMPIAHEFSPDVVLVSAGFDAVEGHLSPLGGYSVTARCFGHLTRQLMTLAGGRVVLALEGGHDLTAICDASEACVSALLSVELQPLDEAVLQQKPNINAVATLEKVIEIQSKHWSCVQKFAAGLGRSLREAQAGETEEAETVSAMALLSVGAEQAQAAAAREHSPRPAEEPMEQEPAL

Row | IC50 [1] | IC50 [2] | IC50 [3] | IC50 [4] | IC50 [5] | IC50 [6] | SMILES | also measured
1 | 3.8 nM | 26.5 nM | 2.1 nM | 3.3 nM | 1950 nM | 3.7 nM | Nc1cccc(-c2csc(NC(=O)CCCCCC(=O)NO)n2)c1 | –
2 | – | – | – | – | – | – | Nc1ccccc1NC(=O)CCCCCC(=O)Nc1ccccc1 | IC50 [7]: Not Active; IC50 [8]: Not Active; IC50 [9]: Not Active
3 | – | – | – | – | – | – | Nc1ccccc1NC(=O)c1ccc(-c2cn(CCc3ccsc3)nn2)cc1 | IC50 [10]: 240 nM
4 | – | – | – | – | – | – | Nc1ccccc1NC(=O)c1cnccn1 | IC50 [11]: > 20000 nM
5 | – | – | – | – | – | – | CC(=O)Nc1ccc(C(=O)Nc2ccc(F)cc2N)cc1 | pKa [12]: 2.33
6 | – | – | – | – | – | – | C=C1CN(Cc2ccc(C(=O)Nc3ccccc3N)cc2)C(=O)c2ccccc21 | IC50 [13]: 4800 nM; IC50 [14]: 30 nM; IC50 [15]: 5000 nM; IC50 [16]: > 10000 nM; IC50 [17]: 4100 nM; IC50 [18]: > 10000 nM
7 | 2.5 nM | 24.5 nM | 1.3 nM | 0.79 nM | 787 nM | 2.1 nM | CCOC(=O)Nc1cccc(-c2csc(NC(=O)CCCCCC(=O)NO)n2)c1 | –
8 | 4200 nM | 1100 nM | 160 nM | 1500 nM | > 30000 nM | 5300 nM | CC(C)(C)OC(=O)Nc1cccc(-c2csc(NC(=O)CCCCCC(=O)Nc3ccccc3N)n2)c1 | –
9 | 3200 nM | 200 nM | 30 nM | 11200 nM | > 30000 nM | 3000 nM | CC(=O)Nc1cccc(-c2csc(NC(=O)CCCCCC(=O)Nc3ccccc3N)n2)c1 | –
10 | 4.2 nM | 21 nM | 1.7 nM | < 0.17 nM | 2580 nM | 5.7 nM | CC(C)(C)OC(=O)Nc1cccc(-c2csc(NC(=O)CCCCCC(=O)NO)n2)c1 | –
11 | 24800 nM | 880 nM | 60 nM | > 30000 nM | > 30000 nM | > 30000 nM | CCOC(=O)Nc1cccc(-c2csc(NC(=O)CCCCCC(=O)Nc3ccccc3N)n2)c1 | –
12 | 2490 nM | 147 nM | 60.3 nM | > 30000 nM | > 30000 nM | 2910 nM | Nc1cccc(-c2csc(NC(=O)CCCCCC(=O)Nc3ccccc3N)n2)c1 | –
13 | – | – | – | – | – | – | CC(=O)Nc1ccc(C(=O)Nc2ccccc2N)cc1 [TACEDINALINE] | pKa [12]: 3.33
